What follows are molecules tested against T1, Recombinant HDAC9 isoform 4 (Homo sapiens, UniProt Q9UKV0) (assay: Histone Deacetylase 9 (HDAC9) inhibition assay, fluorogenic substrate). Details: mean of a minimum of 2 experiments; 11 point 3x dilution series from 100 uM; Class IIa HDAC-specific fluorogenic substrate 4.5 uM; read-out: mean pIC50, inhibition of HDAC9 (converted).
T1 construct: purchased BPS Bioscience
T1 sequence (Q9UKV0 1-1066 isoform Q9UKV0-5): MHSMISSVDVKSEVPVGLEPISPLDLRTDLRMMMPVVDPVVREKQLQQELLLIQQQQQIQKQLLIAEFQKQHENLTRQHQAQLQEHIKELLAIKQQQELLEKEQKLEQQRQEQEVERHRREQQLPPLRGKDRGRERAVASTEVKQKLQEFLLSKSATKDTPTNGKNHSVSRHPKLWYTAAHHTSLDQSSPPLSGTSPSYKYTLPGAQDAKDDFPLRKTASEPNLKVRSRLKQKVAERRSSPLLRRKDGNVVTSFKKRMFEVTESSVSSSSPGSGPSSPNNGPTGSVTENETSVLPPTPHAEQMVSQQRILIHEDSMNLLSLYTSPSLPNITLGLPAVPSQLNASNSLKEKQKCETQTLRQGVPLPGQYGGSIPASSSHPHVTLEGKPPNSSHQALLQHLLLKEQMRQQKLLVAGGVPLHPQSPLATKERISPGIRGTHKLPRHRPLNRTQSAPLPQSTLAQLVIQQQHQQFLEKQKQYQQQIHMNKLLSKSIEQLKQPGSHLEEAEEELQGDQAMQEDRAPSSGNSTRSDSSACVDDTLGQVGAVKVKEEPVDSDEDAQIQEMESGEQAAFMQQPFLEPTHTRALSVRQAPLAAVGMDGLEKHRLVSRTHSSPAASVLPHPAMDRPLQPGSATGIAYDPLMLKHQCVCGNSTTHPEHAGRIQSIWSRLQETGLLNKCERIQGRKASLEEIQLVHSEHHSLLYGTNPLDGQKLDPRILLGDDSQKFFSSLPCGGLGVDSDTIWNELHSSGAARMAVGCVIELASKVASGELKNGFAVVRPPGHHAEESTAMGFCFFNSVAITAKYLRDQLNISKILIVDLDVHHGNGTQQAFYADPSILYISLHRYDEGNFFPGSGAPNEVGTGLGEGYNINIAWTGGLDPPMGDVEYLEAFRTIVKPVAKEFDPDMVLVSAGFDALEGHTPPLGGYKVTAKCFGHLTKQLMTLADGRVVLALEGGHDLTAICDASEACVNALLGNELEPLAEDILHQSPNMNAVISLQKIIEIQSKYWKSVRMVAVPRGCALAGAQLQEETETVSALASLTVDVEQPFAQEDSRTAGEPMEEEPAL
Assay type: biochemical
Source text: Histone Deacetylase 9 (HDAC9) Inhibition Assay:
Novel histone deacetylase 9 (HDAC9) inhibitors were characterized in an in vitro biochemical functional assay. The assay measures the increased fluorescent signal due to deacetylation, by HDAC9, of a fluorogenic substrate. The commercial available substrate is Class IIa HDAC-specific and contains an acetylated lysine residue and would releases the fluorescent signal upon trypsin cleavage after deacetylation.
Specifically, test compounds diluted to various concentrations in 100% DMSO are first dispensed into 384-well assay plates. Recombinant HDAC9 isoform 4 (purchased from BPS Bioscience) in complete assay buffer (50 mM Tris-HCl, pH 8.0, 137 mM NaCl, 2.7 mM KCl, 1 mM MgCl2, 0.05% BSA & 0.005% Tween 20) were then added to each well (5 uL/well) using Multidrop Combi (Thermo Scientific), followed by 5 uL/well substrate (purchased from BPS Bioscience, 4.5 uM final). After 45 minutes incubation at room temperature, 10 uL 2× developer solution (assay buffer with 40 uM Trypsin and 20 uM Trichostatin A) was added. The plates were then incubated 1 hour at room temperature before reading in fluorescent intensity mode at 450 nm in an Envision (Perkin Elmer) plate reader. Percent Inhibition of HDAC9 activity by compounds in each test wells was calculated by normalizing to fluorescent signal in control wells containing DMSO only. The pIC50s value of test compounds were calculated from non-linear curve fitting, using ActivityBase5 data analysis tool (IDBS), from 11 point 3× dilution series starting from 100 uM final compound concentration.
For dose response experiments, normalized data were fit by ABASE/XC50 using the equation y=a+(b−a)/(1+(10^×/10^c)^d), where a is the minimum % activity, b is the maximum % activity, c is the pIC50, d is the Hill slope.
The pIC50s are averaged to determine a mean value, for a minimum of 2 experiments. […] For instance, the compounds of Examples 1, 38, 61 and 79 inhibited HDAC9 in the above method with a mean pIC50 of >6.
For `O=C(c1cccc(-c2noc(C(F)(F)F)n2)c1)N1CC(Cc2nc(-c3ccc(F)cc3)cs2)C1` [Example 79, (3-((4-(4-Fluorophenyl)thiazol-2-yl)methyl)azetidin-1-yl)(3-(5-(trifluoromethyl)-1,2,4-oxadiazol-3-yl)phenyl)methanone], the IC50 was < 1000 nM. `N#Cc1ccc(N2CCN(C(=O)c3cccc(-c4noc(C(F)(F)F)n4)c3)CC2)cc1` [Example 38, 4-(4-(3-(5-(Trifluoromethyl)-1,2,4-oxadiazol-3-yl)benzoyl)piperazin-1-yl)benzonitrile] was tested, and the IC50 was < 1000 nM. `N#Cc1ccc(N2CCN(C(=O)c3cccc(-c4ccc(C(=O)C(F)(F)F)s4)c3)CC2)nc1` [Example 61, 6-(4-(3-(5-(2,2,2-Trifluoroacetyl)thiophen-2-yl)benzoyl)piperazin-1-yl)nicotinonitrile] was tested, and the IC50 was < 1000 nM. For `O=C(c1cccc(-c2noc(C(F)(F)F)n2)c1)N1CCCN(c2ccc(C(F)(F)F)cn2)CC1` [Example 1, (3-(5-(Trifluoromethyl)-1,2,4-oxadiazol-3-yl)phenyl)(4-(5-(trifluoromethyl)pyridin-2-yl)-1,4-diazepan-1-yl)methanone], the IC50 was < 1000 nM.

Reference: patent US8981084B2, “Oxadiazole HDAC inhibitors” (Tempero Pharmaceuticals, Inc., priority 2011, dated 2015)
